The text below walks through data of article PMC9666779 (Frontiers in Pharmacology, 2022).

Data set [1] concerns the target Mpro (Severe acute respiratory syndrome coronavirus 2, UniProt P0DTD1). The data set can be described thus: biochemical. It is filed as binding, SARS-CoV-2.
Data set [2] deals with NRP1 (Homo sapiens, UniProt O14786). As to the kind of experiment: biochemical. It is filed as binding.
Data set [3] concerns the target SARS-CoV-2 Mpro (Severe acute respiratory syndrome coronavirus 2, UniProt P0DTD1). The data set can be described thus: biochemical. The procedure: According to a previously reported method ([Du et al., 2021]), the FRET-based enzymatic assay was used to evaluate the inhibitory effects of the peptides on Mpro. First, the Mpro (250 nM at a final concentration) was incubated with various concentrations of tested peptides in 90 μL reaction buffer for 30 min in a black 96-well plate, and then the reaction was initiated by adding 10 μL of […] FRET-based peptide substrate (Dabcyl-KTSAVLQ/SGFRKME-Edans). The reaction was monitored for 1 h, and the initial velocity was calculated using the data by linear regression. The IC50 was calculated by plotting the initial velocity against various concentrations of testing inhibitor by using a four parameters dose−response curve in Prism software.

The test system of data set [4] is FHs 74 Int cells. As to the kind of experiment: MTT cytotoxicity assay, FHs 74 Int cells. In kind it is cell-based, human. Conditions: 50 μM, 48 h. As to the method:
According to a previously reported method ([Zheng et al., 2021b]), 293T, A549 and FHs 74 Int cells were plated in 96-well plates at a density of 5 × 10^4 cells per well. After incubation for 24 h, the peptide solution was added into the plates and the cells were incubated for 48 h. After that, the incubation medium was removed, the cells were washed with PBS at pH 7.4, and then MTT stock solution (0.5 mg/ml) was added into each well and incubated for another 4 h. The medium was removed by centrifugation, and the precipitated cells were lysed using DMSO. After the purple crystals were completely dissolved, the cell viability was calculated according to the absorbance signals measured by a microplate reader at the wavelength of 570 nm.
Figure S2. The cytotoxicity effects of MNs 1-4 on FHs 74 Int cells detected using MTT assay. Cells were treated with the concentration of 50 μM of peptides for 48 h. The results are represented as mean ± SD (n = 3).
(Formazan colour is commonly taken as a measure of viable cells.)

Bridge positions count the residues as written; N and C are the ends. Square brackets hold non-standard residues; d marks the D form. Peptide text beside a SMILES is read from it.

NRP1, sequence (O14786 273-427): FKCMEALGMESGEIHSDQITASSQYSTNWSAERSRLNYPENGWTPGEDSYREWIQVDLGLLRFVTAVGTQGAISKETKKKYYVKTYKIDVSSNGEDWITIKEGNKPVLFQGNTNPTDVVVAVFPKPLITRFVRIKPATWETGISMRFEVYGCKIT

Usually Kd stands for the free concentration of one partner at which half of the binding sites on the other are occupied at equilibrium, for simple one-to-one binding. Low readings indicate higher affinity, high ones lower affinity. In the case of `CC(C)C[C@@H]1NC(=O)[C@H](CCC(N)=O)NC(=O)[C@H](CCCNC(=N)N)NC(=O)[C@H](C)NC(=O)[C@H](CCCCN)NC(=O)[C@@H]2CSSC[C@@H](C(=O)N[C@@H](CC(=O)O)C(=O)N[C@@H](CCCCN)C(=O)N3CCC[C@H]3C(=O)N[C@@H](CCCNC(=N)N)C(=O)N[C@@H](CCCNC(=N)N)C(=O)O)NC(=O)[C@H](CCCNC(=N)N)NC(=O)[C@H](CSSC[C@H](NC(=O)[C@@H](N)CO)C(=O)N[C@@H](CCCCN)C(=O)N[C@@H](CC(N)=O)C(=O)N[C@@H]([C@@H](C)O)C(=O)N[C@@H](CC(=O)O)C(=O)N[C@@H](CO)C(=O)N[C@@H](CCCNC(=N)N)C(=O)N2)NC(=O)[C@H]([C@@H](C)O)NC(=O)[C@H](CCCNC(=N)N)NC(=O)[C@H](CCC(=O)O)NC(=O)[C@H](CC(N)=O)NC(=O)[C@H](CC(C)C)NC(=O)[C@H](CCC(=O)O)NC1=O` [EG3287, reference compound] (H-SCKNTDSRCKARQLELNERTCRCDKPRR-OH; disulfide 2-21, 9-23; N-terminus assumed), in data set [1] (MST, mean ± SD (n = 3)), the “Mpro, Kd” value was “no binding affinity”. In addition, binding in data set [2] was put at a Kd of 912 ± 10.6 nM.

The term IC50 denotes the midpoint of a concentration-inhibition curve. High values mean lower potency, low ones higher potency. Regarding `CC(C)C[C@@H]1NC(=O)[C@H](C(C)C)NC(=O)[C@H](C)NC(=O)[C@H](Cc2ccccc2)NC(=O)[C@H](CCC(N)=O)NC(=O)[C@H](CC(C)C)NC(=O)[C@@H](Cc2ccccc2)NC(=O)[C@H](N)CSSC[C@H](C(=O)NCC(=O)NCC(=O)NCC(=O)N[C@@H](CCCNC(=N)N)C(=O)N2CCC[C@H]2C(=O)N[C@@H](CCCNC(=N)N)C(=O)N[C@@H](CCCNC(=N)N)C(=O)NCC(=O)N[C@@H](CCCNC(=N)N)C(=O)O)NC(=O)[C@H](CCC(N)=O)NC(=O)[C@H](CCCCN)NC(=O)[C@H](CCCNC(=N)N)NC(=O)[C@H](CCCNC(=N)N)NC(=O)[C@H](Cc2c[nH]cn2)NC(=O)[C@H](CCCNC(=N)N)NC1=O` [MN-1] (H-[dC][dF]LQFAVLRHRRKQ[dC]GGGRPRRGR-OH; disulfide 1-15), the dissociation constant Kd in data set [1] was 53.4 ± 2.5 nM; in data set [2], 95.6 ± 4.1 nM. In data set [3], this molecule showed an IC50 of 56.3 ± 3.9 nM.

Regarding `CC(C)C[C@@H]1NC(=O)[C@H](C(C)C)NC(=O)[C@H](C)NC(=O)[C@H](Cc2ccc(O)cc2)NC(=O)[C@H](CCC(N)=O)NC(=O)[C@H](CC(C)C)NC(=O)[C@@H](Cc2ccccc2)NC(=O)[C@H](N)CSSC[C@H](C(=O)NCC(=O)NCC(=O)NCC(=O)N[C@@H](CCCNC(=N)N)C(=O)N2CCC[C@H]2C(=O)N2CCC[C@H]2C(=O)N[C@@H](CCCNC(=N)N)C(=O)N[C@@H](CCCNC(=N)N)C(=O)N[C@@H](C)C(=O)N[C@@H](CCCNC(=N)N)C(=O)O)NC(=O)[C@H](CCC(=O)O)NC(=O)[C@H](CCCNC(=N)N)NC(=O)[C@H](CCCNC(=N)N)NC(=O)[C@H](CCCCN)NC(=O)[C@H](CCC(N)=O)NC(=O)[C@H](CCCCN)NC1=O` [MN-2] (H-[dC][dF]LQYAVLKQKRRE[dC]GGGRPPRRAR-OH; disulfide 1-15), the equilibrium dissociation constant (Kd) is 18.2 ± 1.9 nM in data set [1] and 12.3 ± 1.2 nM in data set [2]. Further, the IC50 in data set [3] turned out to be 20.6 ± 2.2 nM. Also, in data set [4], the “viability of FHs 74 Int cells (cytotoxicity)” value was “undetectable cytotoxicity”.

For the molecule `CC[C@@H](C)[C@H]1NC(=O)[C@H](N)CSSC[C@H](C(=O)NCC(=O)NCC(=O)NCC(=O)N[C@@H](CCCNC(=N)N)C(=O)NCC(=O)N[C@@H](CCC(=O)O)C(=O)N[C@@H](CCCNC(=N)N)C(=O)N2CCC[C@H]2C(=O)N2CCC[C@H]2C(=O)N[C@@H](CCCNC(=N)N)C(=O)O)NC(=O)[C@H](CCCCN)NC(=O)[C@H](CCCNC(=N)N)NC(=O)[C@H](CCC(N)=O)NC(=O)[C@H](CCCNC(=N)N)NC(=O)[C@H](CCCCN)NC(=O)[C@H](CCCCN)NC(=O)[C@H](Cc2ccccc2)NC(=O)[C@H](C(C)C)NC(=O)[C@H](C)NC(=O)[C@H](CC(C)C)NC(=O)[C@H](CCC(N)=O)NC(=O)[C@H](CC(C)C)NC1=O` [MN-3] (H-[dC][dI]LQLAVFKKRQRK[dC]GGGRGERPPR-OH; disulfide 1-15), the Kd in data set [1] came to 206 ± 8.8 nM; in data set [2], 110 ± 6.7 nM. The half-inhibitory concentration (IC50) in data set [3] came to 209 ± 7.6 nM.

For the molecule `CC(C)C[C@@H]1NC(=O)[C@H](C(C)C)NC(=O)[C@H](C)NC(=O)[C@H](Cc2ccccc2)NC(=O)[C@H](CCC(N)=O)NC(=O)[C@H](CC(C)C)NC(=O)[C@@H](Cc2c[nH]c3ccccc23)NC(=O)[C@H](N)CSSC[C@H](C(=O)NCC(=O)NCC(=O)N[C@@H](CCCNC(=N)N)C(=O)N2CCC[C@H]2C(=O)N[C@@H](C)C(=O)N[C@@H](CCCNC(=N)N)C(=O)N2CCC[C@H]2C(=O)N[C@@H](C)C(=O)N[C@@H](CCCNC(=N)N)C(=O)O)NC(=O)[C@H](C)NC(=O)[C@H](CCC(N)=O)NC(=O)[C@H](CCCCN)NC(=O)[C@H](CCCCN)NC(=O)[C@H](CCC(=O)O)NC(=O)[C@H](CCCNC(=N)N)NC1=O` [MN-4] (H-[dC][dW]LQFAVLREKKQA[dC]GGRPARPAR-OH; disulfide 1-15), the results for the Kd in data set [1] and in data set [2] were 116 ± 5.5 nM and 15.1 ± 3.3 nM, respectively. Moreover, it took 119 ± 6.1 nM to reach half-maximal inhibition in data set [3] (IC50).
